The record followed here is US20250236639A1, “NEUROACTIVE STEROIDS AND COMPOSITIONS THEREOF” (Sage Therapeutics, Inc., priority 2019, published 2025).

One may read the IC50 as the midpoint of a concentration-inhibition curve.

For this experiment, the target named is GABAA receptor. The experiment in a line: Steroid inhibition of [35S]-TBPS binding, rat brain cortical membranes. To be noted: 3 nM [35S]-TBPS, in the presence of 5 mM GABA. The protocol:
[^35S]-t-Butylbicyclophosphorothionate (TBPS) binding assays using rat brain cortical membranes in the presence of 5 mM GABA has been described (Gee et al, J. Pharmacol. Exp. Ther. 1987, 241, 346-353; Hawkinson et al, Mol. Pharmacol. 1994, 46, 977-985; Lewin, A. H et al., Mol. Pharmacol. 1989, 35, 189-194).
Briefly, cortices are rapidly removed following decapitation of carbon dioxide-anesthetized Sprague-Dawley rats (200-250 g). The cortices are homogenized in 10 volumes of ice-cold 0.32 M sucrose using a glass/teflon homogenizer and centrifuged at 1500×g for 10 min at 4° C. The resultant supernatants are centrifuged at 10,000×g for 20 min at 4° C. to obtain the P2 pellets. The P2 pellets are resuspended in 200 mM NaCl/50 mM Na—K phosphate pH 7.4 buffer and centrifuged at 10,000×g for 10 min at 4° C. This washing procedure is repeated twice and the pellets are resuspended in 10 volumes of buffer. Aliquots ([…]) of the membrane suspensions are incubated with 3 nM [^35S]-TBPS and […] aliquots of test drug dissolved in dimethyl sulfoxide (DMSO) (final 0.5%) in the presence of 5 mM GABA. The incubation is brought to a final volume of 1.0 mL with buffer. Nonspecific binding is determined in the presence of […] and ranged from 15 to 25%. Following a 90 min incubation at room temp, the assays are terminated by filtration through glass fiber filters (Schleicher and Schuell No. 32) using a cell harvester (Brandel) and rinsed three times with ice-cold buffer. Filter bound radioactivity is measured by liquid scintillation spectrometry. Non-linear curve fitting of the overall data for each drug averaged for each concentration is done using Prism (GraphPad). […] The concentration of test compound producing 50% inhibition (IC50) of specific binding and the maximal extent of inhibition (Imax) are determined for the individual experiments with the same model used for the overall data and then the means±SEM.s of the individual experiments are calculated.
Various compounds are or can be screened to determine their potential as modulators of [^35S]-TBPS binding in vitro. These assays are or can be performed in accordance with the above
As to `COC[C@@]1(O)CC[C@H]2[C@H](CC[C@@H]3[C@@H]2CC[C@]2(C)[C@@H](C(C)(Cn4cc(C#N)cn4)OC)CC[C@@H]32)C1` (stereo in doubt) [Compound 32, 1-((R)-2-((3R,5R,8R,9R,10S,13S,14S,17S)-3-hydroxy-3-(methoxymethyl)-13-methylhexadecahydro-1H-cyclopenta[a]phenanthren-17-yl)-2-methoxypropyl)-1H-pyrazole-4-carbonitrile], the half-maximal inhibitory concentration (IC50) fell in the range of 100 to 1000 nM.

For the compound `COC[C@@]1(O)CC[C@H]2[C@H](CC[C@@H]3[C@@H]2CC[C@]2(C)[C@@H](C(C)(Cn4cc(C#N)cn4)OC)CC[C@@H]32)C1` (stereo in doubt) [Compound 33, 1-[(2S)-2-[(1S,3aS,3bR,5aR,7R,9aS,9bR,11aS)-7-hydroxy-7-(methoxymethyl)-11a-methyl-hexadecahydro-1H-cyclopenta[a]phenanthren-1-yl]-2-methoxypropyl]-1H-pyrazole-4-carbonitrile], the IC50 was in the range of 100 to 1000 nM.

For the compound `C[C@@]1(O)CC[C@H]2[C@H](CC[C@@H]3[C@@H]2CC[C@@]2(C)[C@H]3CC[C@@H]2[C@@](C)(O)Cn2cc(C#N)cn2)C1` [Compound 1, 1-((R)-2-hydroxy-2-((3R,5R,8R,9R,10S,13S,14S,17S)-3-hydroxy-3,13-dimethylhexadecahydro-1H-cyclopenta[a]phenanthren-17-yl)propyl)-1H-pyrazole-4-carbonitrile], the IC50 was less than 100 nM.

`C[C@@]1(O)CC[C@H]2[C@H](CC[C@@H]3[C@@H]2CC[C@@]2(C)[C@H]3CC[C@@H]2[C@](C)(O)Cn2cc(C#N)cn2)C1` [Compound 2, 1-((S)-2-hydroxy-2-((3R,5R,8R,9R,10S,13S,14S,17S)-3-hydroxy-3,13-dimethylhexadecahydro-1H-cyclopenta[a]phenanthren-17-yl)propyl)-1H-pyrazole-4-carbonitrile]: the IC50 was less than 100 nM.

Consider `CC[C@]12CC[C@@](C)(O)C[C@H]1CC[C@H]1[C@@H]3CC[C@H]([C@](C)(O)Cn4cc(C#N)cn4)[C@@]3(C)CC[C@@H]12` [Compound 3, 1-((S)-2-((3R,5R,8S,9S,10S,13S,14S,17S)-10-ethyl-3-hydroxy-3,13-dimethylhexadecahydro-1H-cyclopenta[a]phenanthren-17-yl)-2-hydroxypropyl)-1H-pyrazole-4-carbonitrile], for which the IC50 is less than 100 nM.

Regarding `CC[C@]12CC[C@@](C)(O)C[C@H]1CC[C@H]1[C@@H]3CC[C@H]([C@@](C)(O)Cn4cc(C#N)cn4)[C@@]3(C)CC[C@@H]12` [Compound 4, 1-((R)-2-((3R,5R,8S,9S,10S,13S,14S,17S)-10-ethyl-3-hydroxy-3,13-dimethylhexadecahydro-1H-cyclopenta[a]phenanthren-17-yl)-2-hydroxypropyl)-1H-pyrazole-4-carbonitrile], the half-maximal inhibitory concentration (IC50) is less than 100 nM.

`CC[C@]12CC[C@@](C)(O)C[C@H]1CC[C@H]1[C@@H]3CC[C@H]([C@@](C)(Cn4cc(C#N)cn4)OC)[C@@]3(C)CC[C@@H]12` [Compound 5, 1-((S)-2-((3R,5R,8S,9S,10S,13S,14S,17S)-10-ethyl-3-hydroxy-3,13-dimethylhexadecahydro-1H-cyclopenta[a]phenanthren-17-yl)-2-methoxypropyl)-1H-pyrazole-4-carbonitrile]: the IC50 was less than 100 nM.

Regarding `CC[C@]12CC[C@@](C)(O)C[C@H]1CC[C@H]1[C@@H]3CC[C@H]([C@](C)(Cn4cc(C#N)cn4)OC)[C@@]3(C)CC[C@@H]12` [Compound 6, 1-((R)-2-((3R,5R,8S,9S,10S,13S,14S,17S)-10-ethyl-3-hydroxy-3,13-dimethylhexadecahydro-1H-cyclopenta[a]phenanthren-17-yl)-2-methoxypropyl)-1H-pyrazole-4-carbonitrile], the IC50 was less than 100 nM.

In the case of `CCC[C@@]1(O)CC[C@H]2[C@H](CC[C@@H]3[C@@H]2CC[C@@]2(C)[C@H]3CC[C@@H]2[C@](C)(O)Cn2cc(C#N)cn2)C1` [Compound 7, 1-((S)-2-hydroxy-2-((3R,5R,8R,9R,10S,13S,14S,17S)-3-hydroxy-13-methyl-3-propylhexadecahydro-1H-cyclopenta[a]phenanthren-17-yl)propyl)-1H-pyrazole-4-carbonitrile], the 50% inhibitory concentration (IC50) is less than 100 nM.

Take `CCC[C@@]1(O)CC[C@H]2[C@H](CC[C@@H]3[C@@H]2CC[C@@]2(C)[C@H]3CC[C@@H]2[C@@](C)(O)Cn2cc(C#N)cn2)C1` [Compound 8, 1-((R)-2-hydroxy-2-((3R,5R,8R,9R,10S,13S,14S,17S)-3-hydroxy-13-methyl-3-propylhexadecahydro-1H-cyclopenta[a]phenanthren-17-yl)propyl)-1H-pyrazole-4-carbonitrile]: the IC50 lay within 100 to 1000 nM.

Turning to `CCC[C@@]1(O)CC[C@H]2[C@@H](CC[C@@H]3[C@@H]2CC[C@@]2(C)[C@H]3CC[C@@H]2[C@](C)(O)Cn2cc(C#N)cn2)C1` [Compound 9, 1-((S)-2-hydroxy-2-((3R,5S,8R,9R,10S,13S,14S,17S)-3-hydroxy-13-methyl-3-propylhexadecahydro-1H-cyclopenta[a]phenanthren-17-yl)propyl)-1H-pyrazole-4-carbonitrile], the IC50 is 100 to 1000 nM.

Regarding `CCC[C@@]1(O)CC[C@H]2[C@@H](CC[C@@H]3[C@@H]2CC[C@@]2(C)[C@H]3CC[C@@H]2[C@@](C)(O)Cn2cc(C#N)cn2)C1` [Compound 10, 1-((R)-2-hydroxy-2-((3R,5S,8R,9R,10S,13S,14S,17S)-3-hydroxy-13-methyl-3-propylhexadecahydro-1H-cyclopenta[a]phenanthren-17-yl)propyl)-1H-pyrazole-4-carbonitrile], the IC50 was not below 1000 nM.

With `CC[C@@]1(O)CC[C@H]2[C@H](CC[C@@H]3[C@@H]2CC[C@@]2(C)[C@H]3CC[C@@H]2[C@](C)(O)Cn2cc(C#N)cn2)C1` [Compound 11, 1-((S)-2-((3R,5R,8R,9R,10S,13S,14S,17S)-3-ethyl-3-hydroxy-13-methylhexadecahydro-1H-cyclopenta[a]phenanthren-17-yl)-2-hydroxypropyl)-1H-pyrazole-4-carbonitrile], the IC50 is less than 100 nM.

For `CC[C@@]1(O)CC[C@H]2[C@H](CC[C@@H]3[C@@H]2CC[C@@]2(C)[C@H]3CC[C@@H]2[C@@](C)(O)Cn2cc(C#N)cn2)C1` [Compound 12, 1-((R)-2-((3R,5R,8R,9R,10S,13S,14S,17S)-3-ethyl-3-hydroxy-13-methylhexadecahydro-1H-cyclopenta[a]phenanthren-17-yl)-2-hydroxypropyl)-1H-pyrazole-4-carbonitrile], the IC50 is 100 to 1000 nM.

Take `CC[C@@]1(O)CC[C@H]2[C@@H](CC[C@@H]3[C@@H]2CC[C@@]2(C)[C@H]3CC[C@@H]2[C@](C)(O)Cn2cc(C#N)cn2)C1` [Compound 13, 1-((S)-2-((3R,5S,8R,9R,10S,13S,14S,17S)-3-ethyl-3-hydroxy-13-methylhexadecahydro-1H-cyclopenta[a]phenanthren-17-yl)-2-hydroxypropyl)-1H-pyrazole-4-carbonitrile]: the IC50 was in the range of 100 to 1000 nM.

Turning to `CC[C@@]1(O)CC[C@H]2[C@@H](CC[C@@H]3[C@@H]2CC[C@@]2(C)[C@H]3CC[C@@H]2[C@@](C)(O)Cn2cc(C#N)cn2)C1` [Compound 14, 1-((R)-2-((3R,5S,8R,9R,10S,13S,14S,17S)-3-ethyl-3-hydroxy-13-methylhexadecahydro-1H-cyclopenta[a]phenanthren-17-yl)-2-hydroxypropyl)-1H-pyrazole-4-carbonitrile], the half-inhibitory concentration (IC50) was not below 1000 nM.

Consider `CCOC[C@@]1(O)CC[C@H]2[C@H](CC[C@@H]3[C@@H]2CC[C@@]2(C)[C@H]3CC[C@@H]2[C@@](C)(O)Cn2cc(C#N)cn2)C1` [Compound 16, 1-((R)-2-((3R,5R,8R,9R,10S,13S,14S,17S)-3-(ethoxymethyl)-3-hydroxy-13-methylhexadecahydro-1H-cyclopenta[a]phenanthren-17-yl)-2-hydroxypropyl)-1H-pyrazole-4-carbonitrile], for which the IC50 was less than 100 nM.

Turning to `CCC[C@@]1(O)CC[C@@]2(C)[C@@H](CC[C@@H]3[C@@H]2CC[C@@]2(C)[C@H]3CC[C@@H]2[C@](C)(O)Cn2cc(C#N)cn2)C1` [Compound 17, 1-((S)-2-hydroxy-2-((3R,5S,8R,9S,10S,13S,14S,17S)-3-hydroxy-10,13-dimethyl-3-propylhexadecahydro-1H-cyclopenta[a]phenanthren-17-yl)propyl)-1H-pyrazole-4-carbonitrile], the IC50 was in the range of 100 to 1000 nM.
